The target of test [1] is T1, SOS1 catalytic domain (residues 564-1049) (Homo sapiens, UniProt Q07889).
T1 sequence (Q07889 564-1049): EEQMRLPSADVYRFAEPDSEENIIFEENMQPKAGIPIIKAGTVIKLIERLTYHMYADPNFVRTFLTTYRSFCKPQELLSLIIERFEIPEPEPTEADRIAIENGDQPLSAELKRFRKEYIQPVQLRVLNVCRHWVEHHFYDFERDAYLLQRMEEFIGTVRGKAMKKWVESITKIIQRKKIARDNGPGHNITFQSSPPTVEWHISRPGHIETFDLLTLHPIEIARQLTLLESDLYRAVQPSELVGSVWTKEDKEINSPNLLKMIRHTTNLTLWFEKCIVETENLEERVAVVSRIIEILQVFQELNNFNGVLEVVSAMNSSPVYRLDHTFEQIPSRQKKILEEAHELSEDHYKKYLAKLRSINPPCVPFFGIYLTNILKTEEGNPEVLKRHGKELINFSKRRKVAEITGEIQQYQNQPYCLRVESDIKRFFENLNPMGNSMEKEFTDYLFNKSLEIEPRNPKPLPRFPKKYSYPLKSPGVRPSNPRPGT
In words: Mode of Action Assay: inhibition of SOS1 nucleotide exchange activity (SOS1 TR-FRET IC50 Assay). In general terms: TR-FRET usually uses a lanthanide donor and a delayed reading to cut background.

Test [2] relates to PC-9 cells (EGFR Ex19Del). In words: Potency Assay: pERK (SOS1 pERK IC50 Assay, AlphaLISA SureFire Ultra p-ERK1/2). Conditions: Homo sapiens, read-out: SOS1 pERK IC50. Type of test: cell-based. Here is the method:
The purpose of this assay is to measure the ability of test compounds to inhibit SOS1 function in cells. SOS1 activates RAS proteins by catalyzing the conversion of RAS GDP to RAS GTP in response to receptor tyrosine kinase activation. […] The procedure described below measures the level of cellular pERK in response to test compounds in PC-9 cells (EGFR Ex19Del).
PC-9 cells were grown and maintained using media and procedures recommended by the ATCC. On the day prior to compound addition, cells were plated in 384-well cell culture plates (40 μL/well) and grown overnight in a 37° C., 5% CO2 incubator. Test compounds were prepared in 10, 3-fold dilutions in DMSO, with a top concentration of 10 mM. On the day of the assay, 40 nL of test compound was added to each well of cell culture plate using an Echo550 liquid handler (LabCyte). Concentrations of test compound were tested in duplicate with highest test concentration being 10 μM. After compound addition, cells were incubated for 1 hour at 37° C., 5% CO2. Following incubation, culture medium was removed and cells were washed once with phosphate buffered saline.
Cellular pERK level was determined using the AlphaLISA SureFire Ultra p-ERK1/2 Assay Kit (PerkinElmer). Cells were lysed in 25 μL lysis buffer, with shaking at 600 RPM at room temperature for 15 minutes. Lysate (10 μL) was transferred to a 384-well Opti-plate (PerkinElmer) and 5 μL acceptor mix was added. The plate was centrifuged at 1000 RPM for 1 minute, and incubated in the dark for 2 hours. Following this incubation, 5 μL of donor mix was added, the plate was sealed and centrifuged at 1000 RPM for 1 minute, and the mixture was incubated for 2 hours at room temperature. Signal was read on an Envision plate reader (PerkinElmer) using standard AlphaLISA settings. Analysis of raw data was carried out in Excel (Microsoft) and Prism (GraphPad). Signal was plotted vs. the decadal logarithm of compound concentration, and IC50 was determined by fitting a 4-parameter sigmoidal concentration response model.
(Bead proximity is the source of the signal in Alpha formats.)

Where [3] appears, read: PC-9 cells (EGFR Ex19Del), 1 hour incubation, AlphaLISA p-ERK1/2.

Molecules are shown by their SMILES. Like-named read-outs stand apart in the source and are kept apart here.

As a reminder, the IC50 is the concentration that gives 50% inhibition. As for `C[C@@H](Nc1nc(Cl)nc2c1CN(C(=O)N1CCOCC1)C2)c1ccc2cc[nH]c2c1` [Example 495], the IC50 in test [1] and in test [2] (setting [3]) was more than 1 µM in each case.
Consider `CC(Nc1nc(Cl)nc2c1CN(C(=O)N1CCOCC1)C2)c1nccc(C(F)F)c1F` (stereo not drawn) [Example 521, 2-chloro-N-{1-[4-(difluoromethyl)-3-fluoropyridin-2-yl]ethyl}-6-(morpholine-4-carbonyl)-5H,6H,7H-pyrrolo[3,4-d]pyrimidin-4-amine], for which the IC50 in test [1] was more than 1 µM; in test [2] (PC-9, 1 h), more than 1 µM.
In the case of `C[C@@H](Nc1nc(Cl)nc2c1CN(C(=O)C1OCCN(C)C1=O)C2)c1cccc(C(F)F)c1F` (stereo partly drawn) [Example 301], the IC50 in test [1] and in test [2] (setting [3]) was less than 1 µM throughout.
Consider `C[C@@H](Nc1nc(Cl)nc2c1CN(C(=O)c1cccc(Cl)n1)CC2)c1cc(N)cc(C(F)(F)F)c1` [Example 252], for which the IC50 in test [1] and in test [2] (setting [3]) was more than 1 µM throughout.
As for `COC1(C(=O)N2CCc3nc(Cl)nc(N[C@H](C)c4cc(N)cc(C(F)(F)F)c4)c3C2)CCC1` [Example 203], the half-inhibitory concentration (IC50) in test [1] and in test [2] (setting [3]) was more than 1 µM each time.
As for `C[C@@H](Nc1nc(Cl)nc2c1CN(C(=O)C1CCN(C)CC1)C2)c1cc(N)cc(C(F)(F)F)c1` [Example 58, [4-[[(1R)-1-[3-amino-5-(trifluoromethyl)phenyl]ethyl]amino]-2-chloro-5,7-dihydropyrrolo[3,4-d]pyrimidin-6-yl]-(1-methyl-4-piperidyl)methanone], the concentration for half-maximal inhibition (IC50) in test [1] was less than 1 µM; in test [2] (PC-9, 1 h), less than 1 µM.
For the compound `CC(Nc1nc(Cl)nc2c1CN(C(=O)N1CCOCC1)C2)c1cccc(C(F)(F)CO)c1Cl` (stereo not drawn) [Example 506, 2-[2-chloro-3-(1-{[2-chloro-6-(morpholine-4-carbonyl)-5H,6H,7H-pyrrolo[3,4-d]pyrimidin-4-yl]amino}ethyl)phenyl]-2,2-difluoro-ethan-1-ol], the IC50 in test [1] and in test [2] (setting [3]) was less than 1 µM in each case.
Turning to `C[C@@H](Nc1nc(Cl)nc2c1CN(C(=O)N1CCOc3cccnc31)C2)c1cccc(C(F)(F)F)c1` [Example 368], the IC50 in test [1] and in test [2] (setting [3]) was less than 1 µM in each case.
For the compound `C[C@@H](Nc1nc(Cl)nc2c1CN(C(=O)N1CCOC(c3cccnc3)C1)C2)c1cc(N)cc(C(F)(F)F)c1` (stereo partly drawn) [Example 151], the IC50 in test [1] and in test [2] (setting [3]) was less than 1 µM in each case.
With `C[C@@H](Nc1nc(Cl)nc2c1CN(C(=O)c1cncc(N3CCOCC3)n1)CC2)c1cc(N)cc(C(F)(F)F)c1` [Example 243], the IC50 in test [1] and in test [2] (setting [3]) was more than 1 µM in each case.
As to `C[C@@H](Nc1nc(Cl)nc2c1CN(C1CNC1)CC2)c1cccc(C(F)(F)F)c1` [Example 177, (R)-6-(azetidin-3-yl)-2-chloro-N-(1-(3-(trifluoromethyl)phenyl)ethyl)-5,6,7,8-tetrahydropyrido[4,3-d]pyrimidin-4-amine], the IC50 in test [1] is less than 1 µM; in test [2] (setting [3]), more than 1 µM.
Take `COCC1(C(=O)N2CCc3nc(Cl)nc(N[C@H](C)c4cc(N)cc(C(F)(F)F)c4)c3C2)CCC1` [Example 204]: the half-inhibitory concentration (IC50) in test [1] is less than 1 µM; in test [2] (setting [3]) it was more than 1 µM.
The corresponding values for `CC(Nc1nc(Cl)nc2c1CN(C(=O)N1CCOCC1)C2)c1cccc(S(C)(=O)=O)c1` (stereo not drawn) [Example 497] are more than 1 µM and more than 1 µM.
Turning to `C[C@@H](Nc1nc(Cl)nc2c1CN(C(=O)C13CCC(CC1)O3)CC2)c1cc(N)cc(C(F)(F)F)c1` [Example 218], the 50% inhibitory concentration (IC50) in test [1] and in test [2] (setting [3]) was more than 1 µM in each case.
For the compound `COC12CCC(C(=O)N3CCc4nc(Cl)nc(N[C@H](C)c5cc(N)cc(C(F)(F)F)c5)c4C3)(CC1)C2` [Example 196], the IC50 in test [1] and in test [2] (setting [3]) was more than 1 µM each time.
Take `Cc1nc2c(c(N[C@H](C)c3cc(N)cc(C(F)(F)F)c3)n1)CN(S(=O)(=O)N1CCN(C)CC1)C2` [Example 38, (R)—N-(1-(3-amino-5-(trifluoromethyl)phenyl)ethyl)-2-methyl-6-((4-methylpiperazin-1-yl)sulfonyl)-6,7-dihydro-5H-pyrrolo[3,4-d]pyrimidin-4-amine]: the IC50 in test [1] and in test [2] (setting [3]) was less than 1 µM in each case.
As to `CC(Nc1nc(Cl)nc2c1CN(C(=O)N1CCOCC1)C2)c1cccc(S(F)(F)(F)(F)F)c1` (stereo not drawn) [Example 462, [2-chloro-4-[1-[3-(pentafluoro-sulfanyl)phenyl]ethylamino]-5,7-dihydropyrrolo[3,4-d]pyrimidin-6-yl]-morpholino-methanone], the IC50 in test [1] and in test [2] (setting [3]) was more than 1 µM each time.
On to `C[C@@H](Nc1nc(Cl)nc2c1CN(C(=O)C1CCC1)CC2)c1cc(N)cc(C(F)(F)F)c1` [Example 209], for which the half-maximal inhibitory concentration (IC50) in test [1] and in test [2] (setting [3]) was more than 1 µM each time.
On to `CC(Nc1nc(Cl)nc2c1CN(C(=O)N1CCOCC1)C2)c1ccc(-c2ccccc2)s1` (stereo not drawn) [Example 532, [2-chloro-4-[1-(5-phenyl-2-thienyl)ethylamino]-5,7-dihydropyrrolo[3,4-d]pyrimidin-6-yl]-morpholino-methanone], for which the half-inhibitory concentration (IC50) in test [1] was more than 1 µM; in test [2] (PC-9, 1 h), more than 1 µM.
With `CC(Nc1nc(Cl)nc2c1CN(C(=O)N1CCOCC1)C2)c1cccc(C(F)(F)F)c1Cl` (stereo not drawn) [Example 498], the IC50 is more than 1 µM in test [1] and less than 1 µM in test [2] (setting [3]).
For `C[C@@H](Nc1nc(Cl)nc2c1CN(C(=O)N1CCNC3CC31)C2)c1cccc(C(F)(F)F)c1` (stereo partly drawn) [Example 379], in that order: less than 1 µM and less than 1 µM.
The corresponding values for `Cc1nc2c(c(N[C@H](C)c3cc(N)cc(C(F)(F)F)c3)n1)CCN(C(=O)N1CCOCC1)CC2` [Example 112, N-[(1R)-1-[3-amino-5-(trifluoromethyl)phenyl]ethyl]-2-methyl-7-(morpholine-4-carbonyl)-5H,6H,7H,8H,9H-pyrimido[4,5-d]-azepin-4-amine] are more than 1 µM and more than 1 µM.
For `Cc1c(C(C)Nc2nc(Cl)nc3c2CN(C(=O)N2CCOCC2)C3)cccc1C(F)(F)F` (stereo not drawn) [Example 499], in that order: more than 1 µM and less than 1 µM.
Consider `C[C@@H](Nc1nc(Cl)nc2c1CN(C(=O)N1CCOCC1)C2)c1cncc(C(F)(F)F)c1` [Example 480, 2-chloro-6-(morpholine-4-carbonyl)-N-[(1R)-1-[5-(trifluoromethyl)pyridin-3-yl]ethyl]-5H,6H,7H-pyrrolo[3,4-d]pyrimidin-4-amine], for which the IC50 in test [1] and in test [2] (setting [3]) was more than 1 µM in each case.
Consider `C[C@@H](Nc1nc(Cl)nc2c1CN(C(=O)N1CCOCC1)C2)c1cnc(C(F)(F)F)s1` [Example 474, 2-chloro-6-(morpholine-4-carbonyl)-N-[(1R)-1-[2-(trifluoromethyl)-1,3-thiazol-5-yl]ethyl]-5H,6H,7H-pyrrolo[3,4-d]pyrimidin-4-amine], for which the half-inhibitory concentration (IC50) in test [1] and in test [2] (setting [3]) was more than 1 µM throughout.
As to `CC(CO)c1cccc(C(C)Nc2nc(Cl)nc3c2CN(C(=O)N2CCOCC2)C3)c1` (stereo not drawn) [Example 500, 2-[3-(1-{[2-Chloro-6-(morpholine-4-carbonyl)-5H,6H,7H-pyrrolo[3,4-d]pyrimidin-4-yl]amino}ethyl)phenyl]propan-1-ol], the IC50 is less than 1 µM in test [1] and more than 1 µM in test [2] (setting [3]).
With `COC1CN([C@@H]2CCc3ncnc(N[C@H](C)c4cccc(C(F)F)c4F)c3C2)C1` [Example 443], the IC50 in test [1] and in test [2] (setting [3]) was more than 1 µM throughout.

Values taken from patent US20230096028A1, “BICYCLIC HETEROCYCLYL COMPOUNDS AND USES THEREOF” (Revolution Medicines, Inc., priority 2019, published 2023).
